Results from paper PMC10435442, “Developing multitarget coumarin based anti-breast cancer agents: synthesis and molecular modeling study” (Scientific Reports, 2023).
In brackets after ≈: the same amount, converted by molar mass. Several values for one entry are separate records, joined by “and”; a condition that tells them apart may be missing. Identical values can stand only once. Like-named read-outs stand apart in the source and are kept apart here. Marks after values point to notes of the source that are not given here.

Experiments:
[1] = tested on: MDA-MB-231; test: MTT cytotoxicity assay, MDA-MB-231; conditions: for IC50: Homo sapiens; for % viability: MDA
[2] = tested on: MCF-7; test: MTT cytotoxicity assay, MCF-7; conditions: for IC50: Homo sapiens
[3] = molecular target: T1, aromatase (ARO) (Homo sapiens, UniProt P11511); test: In vitro aromatase (ARO) enzyme inhibition assay (ELISA)
T1 sequence (P11511 1-503): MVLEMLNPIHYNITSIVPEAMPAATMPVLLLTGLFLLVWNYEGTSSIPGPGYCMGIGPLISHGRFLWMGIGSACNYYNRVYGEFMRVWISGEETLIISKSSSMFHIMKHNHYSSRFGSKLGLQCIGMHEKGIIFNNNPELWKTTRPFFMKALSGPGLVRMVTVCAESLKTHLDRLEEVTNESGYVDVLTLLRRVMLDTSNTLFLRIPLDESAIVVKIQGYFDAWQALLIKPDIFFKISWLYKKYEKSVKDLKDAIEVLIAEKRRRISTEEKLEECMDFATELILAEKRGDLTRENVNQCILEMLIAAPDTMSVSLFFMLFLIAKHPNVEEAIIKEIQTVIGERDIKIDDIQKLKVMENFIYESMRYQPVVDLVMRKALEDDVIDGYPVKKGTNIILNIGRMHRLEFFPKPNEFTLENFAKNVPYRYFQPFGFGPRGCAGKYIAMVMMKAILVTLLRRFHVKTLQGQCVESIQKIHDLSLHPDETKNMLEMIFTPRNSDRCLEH

[4] = molecular target: EGFR (Homo sapiens, UniProt P00533); test: In vitro EGFR enzyme inhibition assay (ELISA); conditions: for EGFR %inh: lab report 01-11-2021
EGFR, sequence (P00533 25-1210): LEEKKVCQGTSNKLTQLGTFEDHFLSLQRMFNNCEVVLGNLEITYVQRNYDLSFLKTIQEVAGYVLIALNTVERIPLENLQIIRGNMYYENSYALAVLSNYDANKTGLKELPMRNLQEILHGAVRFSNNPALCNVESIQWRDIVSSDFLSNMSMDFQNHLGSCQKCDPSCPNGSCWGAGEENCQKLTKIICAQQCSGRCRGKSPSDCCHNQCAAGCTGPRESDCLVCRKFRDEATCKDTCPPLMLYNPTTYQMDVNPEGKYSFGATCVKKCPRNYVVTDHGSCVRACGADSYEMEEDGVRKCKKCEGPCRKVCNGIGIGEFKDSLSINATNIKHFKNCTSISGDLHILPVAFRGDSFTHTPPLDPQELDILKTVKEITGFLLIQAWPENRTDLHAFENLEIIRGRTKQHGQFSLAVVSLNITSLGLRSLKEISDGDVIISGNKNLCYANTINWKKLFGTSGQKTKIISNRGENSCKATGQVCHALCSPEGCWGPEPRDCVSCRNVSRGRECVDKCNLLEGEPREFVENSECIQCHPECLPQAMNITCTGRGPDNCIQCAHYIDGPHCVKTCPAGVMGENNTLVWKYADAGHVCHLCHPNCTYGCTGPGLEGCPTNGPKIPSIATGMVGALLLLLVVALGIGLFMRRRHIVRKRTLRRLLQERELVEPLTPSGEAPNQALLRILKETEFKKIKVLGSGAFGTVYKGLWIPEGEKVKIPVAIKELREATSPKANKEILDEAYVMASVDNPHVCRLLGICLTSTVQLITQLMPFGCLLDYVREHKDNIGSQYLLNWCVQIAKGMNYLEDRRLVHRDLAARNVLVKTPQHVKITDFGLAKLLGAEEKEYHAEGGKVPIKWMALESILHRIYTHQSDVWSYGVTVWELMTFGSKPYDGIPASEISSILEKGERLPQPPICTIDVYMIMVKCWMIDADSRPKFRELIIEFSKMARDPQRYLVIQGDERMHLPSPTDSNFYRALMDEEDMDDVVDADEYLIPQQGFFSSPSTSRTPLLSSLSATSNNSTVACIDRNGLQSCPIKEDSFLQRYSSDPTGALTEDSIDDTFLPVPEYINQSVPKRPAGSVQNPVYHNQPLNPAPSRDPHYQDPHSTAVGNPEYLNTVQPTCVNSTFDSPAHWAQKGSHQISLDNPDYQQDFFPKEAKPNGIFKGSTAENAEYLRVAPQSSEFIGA

[5] = in vitro; conditions: human, MCF-10A cells (nonmalignant breast)
[6] = tested on: MCF-10A; test: MTT cytotoxicity assay, nonmalignant MCF-10A; conditions: read-out: MCF-10A IC50; MTT, nonmalignant MCF-10A;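 note: MTT assay with absorbance read at 570 nm after 48 h exposure of cells to serial compound concentrations at 37 °C, testing selectivity against nonmalignant versus cancer cells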
[7] = tested on: MCF-7; test: Annexin V-FITC/PI dual staining apoptosis assay, MCF-7; format: cell-based, human
[8] = tested on: Caspase-9; test: Caspase-9 level (ELISA) in treated cells; format: cell-based, human; conditions: MCF-7 cells
[9] = tested on: Bcl-2; test: Bcl-2 level (ELISA) in treated cells; format: cell-based, human; conditions: MCF-7 cells
[10] = tested on: Bax; test: Bax level (ELISA) in treated cells; format: cell-based, human; conditions: MCF-7 cells
[11] = tested on: MCF-7; test: DNA flow cytometric cell cycle analysis, MCF-7; format: cell-based, human
[12] = tested on: ARO; set-up: method as in PMID 21341743, PMID 28512028, PMID 15358790, PMID 24607878, PMID 30360952; conditions: reported coumarin derivatives, Fig. 1b; read-out: ARO inhibitior IC50; cited from earlier work
[13] = MDA-MB-231, read-out: MDA-MBA-231 IC50
[14] = MDA-MB-231, read-out: cytotoxicity_IC50 MDA
[15] = MCF7, read-out: cytotoxicity_IC50 mcf7
[16] = EGFR IC50, lab report 01-11-2021, 10 compounds
[17] = MCF-7, compared to untreated control

**Q.** For O=C(OCc1cc(=O)oc2cc(O)ccc12)c1ccccc1 [Compound 2, (7-Hydroxy-2-oxo-2H-chromen-4-yl)methyl benzoate], which IC50 [1, 13] is on record?
**A.** Its IC50 is 51.9 ± 0.84 µM.

**Q.** What about the IC50 [1, 14] of the same compound?
**A.** The IC50 was 15.4 ± 0.84 µg/mL.

**Q.** What about the “% viability” value ([1]; 0.4ug (log conc. -0.41)) of the same compound?
**A.** The value was 75.87% and 75.875%.

**Q.** And the “% viability” value ([1]; 1.6ug (log conc. 0.19))?
**A.** Its value is 65.56% and 65.561%.

**Q.** And the “% viability” value ([1]; 6.25ug (log conc. 0.8))?
**A.** The value was 57.358% and 57.36%.

**Q.** What about the “% viability” value ([1]; 25ug (log conc. 1.4)) of the same compound?
**A.** Its value is 47.527% and 47.53%.

**Q.** And the “% viability” value ([1]; 100ug (log conc. 2))?
**A.** Its value is 36.5501% and 36.55%.

**Q.** And the IC50 ([2]; MCF7, read-out: MCF-7 IC50)?
**A.** Its IC50 is 6 ± 0.11 µM.

**Q.** And the IC50 [2, 15]?
**A.** Its IC50 is 1.78 ± 0.11 µg/mL.

**Q.** And the “% viability” value ([2]; MCF7, 0.4ug)?
**A.** Its value is 58.765%.

**Q.** And the “% viability” value ([2]; MCF7, 1.6ug)?
**A.** The value was 52.469%.

**Q.** What about the “% viability” value ([2]; MCF7, 6.3ug) of the same compound?
**A.** Its value is 41.79%.

**Q.** What about the “% viability” value ([2]; MCF7, 25ug) of the same compound?
**A.** The value was 32.963%.

**Q.** And the “% viability” value ([2]; MCF7, 100ug)?
**A.** Its value is 21.0494%.

**Q.** What about the IC50 ([3]; ARO inhibition IC50) of the same compound?
**A.** The IC50 was 0.216 ± 0.01 µM.

**Q.** What about the IC50 ([3]; Aromatase IC50, lab report 14-12-2020) of the same compound?
**A.** Its IC50 is 0.216 µM.

**Q.** And the inhibition at 10 pg/mL ([3]; read-out: %inh)?
**A.** Its inhibition at 10 pg/mL is 37%.

**Q.** What about the inhibition at 0.0001 µg/mL ([3]; read-out: %inh) of the same compound?
**A.** Its inhibition at 0.0001 µg/mL is 54%.

**Q.** And the inhibition at 0.001 µg/mL ([3]; read-out: %inh)?
**A.** The inhibition at 0.001 µg/mL was 68%.

**Q.** What about the inhibition at 0.01 µg/mL ([3]; read-out: %inh) of the same compound?
**A.** The inhibition at 0.01 µg/mL was 89%.

**Q.** And the IC50 [4, 16]?
**A.** Its IC50 is 0.864 µM.

**Q.** And the IC50 ([4]; EGFR inhibition IC50)?
**A.** The IC50 was 0.864 ± 0.054 µM.

**Q.** And the EGFR %inh ([4]; conc 0.01 (unit not given))?
**A.** The EGFR %inh was 20%.

**Q.** What about the EGFR %inh ([4]; conc 0.1 (unit not given)) of the same compound?
**A.** The EGFR %inh was 41%.

**Q.** And the EGFR %inh ([4]; conc 1 (unit not given))?
**A.** Its EGFR %inh is 63%.

**Q.** And the EGFR %inh ([4]; conc 10 (unit not given))?
**A.** Its EGFR %inh is 84%.

**Q.** And the “Percentage above Reference IC50 (potency relative to erlotinib)” value [4]?
**A.** Its value is 9.722%.

**Q.** And the IC50 at 48 h [5]?
**A.** Its IC50 at 48 h is 55 ± 2.68 µg/mL (≈ 186 µM).

**Q.** And the viability at 48 h, 0.4 ug [5]?
**A.** Its viability at 48 h, 0.4 ug is 88%.

**Q.** What about the viability at 48 h, 1.6 ug [5] of the same compound?
**A.** Its viability at 48 h, 1.6 ug is 77.2%.

**Q.** And the viability at 48 h, 6.25 ug [5]?
**A.** Its viability at 48 h, 6.25 ug is 66.5%.

**Q.** What about the viability at 48 h, 25 ug [5] of the same compound?
**A.** The viability at 48 h, 25 ug was 57.6%.

**Q.** And the viability at 48 h, 100 ug [5]?
**A.** Its viability at 48 h, 100 ug is 44.4%.

**Q.** And the IC50 [6]?
**A.** Its IC50 is 186 ± 2.68 µM.

**Q.** With O=C(COc1ccc2c(COC(=O)c3ccccc3)cc(=O)oc2c1)c1ccc(Cl)cc1 [Compound 8, {7-[2-(4-Chlorophenyl)-2-oxoethoxy]-2-oxo-2H-chromen-4-yl}methyl benzoate] as the compound, how does the “Apoptosis Late” value ([7]; MCF7) read?
**A.** Its value is 19.66.

**Q.** And the “Apoptosis Total” value ([7]; MCF7)?
**A.** Its value is 31.19.

**Q.** What about the “% Apoptosis Early” value ([7]; MCF-7) of the same compound?
**A.** Its value is 4.94^abcA %.

**Q.** And the “% Apoptosis Late” value ([7]; MCF-7)?
**A.** The value was 19.66^acA %.

**Q.** And the “% Apoptosis Total” value ([7]; MCF-7)?
**A.** Its value is 31.19% and 31.19^abc %.

**Q.** What about the “% Necrosis” value ([7]; MCF-7) of the same compound?
**A.** Its value is 6.59%.

**Q.** And the IC50 [1, 13]?
**A.** Its IC50 is 27.5 ± 0.67 µM.

**Q.** And the IC50 [1, 14]?
**A.** The IC50 was 12.3 ± 0.67 µg/mL.

**Q.** What about the “Caspase-9 Conc.” value [8] of the same compound?
**A.** The value was 30.39±2.56^abc ng/ml.

**Q.** And the IC50 ([2]; MCF7, read-out: MCF-7 IC50)?
**A.** The IC50 was 5.8 ± 0.16 µM.

**Q.** What about the IC50 [2, 15] of the same compound?
**A.** The IC50 was 2.62 ± 0.16 µg/mL.

**Q.** And the “% viability” value ([2]; MCF7, 0.4ug)?
**A.** Its value is 61.556%.

**Q.** What about the “% viability” value ([2]; MCF7, 1.6ug) of the same compound?
**A.** The value was 54.284%.

**Q.** And the “% viability” value ([2]; MCF7, 6.3ug)?
**A.** The value was 43.461%.

**Q.** What about the “% viability” value ([2]; MCF7, 25ug) of the same compound?
**A.** The value was 36.189%.

**Q.** What about the “% viability” value ([2]; MCF7, 100ug) of the same compound?
**A.** The value was 27.3957%.

**Q.** And the “Bcl-2 Conc” value [9]?
**A.** The value was 3.291±0.36^a ng/ml.

**Q.** What about the “Bax Conc” value [10] of the same compound?
**A.** Its value is 0.164±0.0056^acd ng/ml.

**Q.** And the IC50 [4, 16]?
**A.** The IC50 was 1.1 µM.

**Q.** What about the IC50 ([4]; EGFR inhibition IC50) of the same compound?
**A.** Its IC50 is 1.1 ± 0.066 µM.

**Q.** What about the EGFR %inh ([4]; conc 10 (unit not given)) of the same compound?
**A.** Its EGFR %inh is 83%.

**Q.** And the “Percentage above Reference IC50 (potency relative to erlotinib)” value [4]?
**A.** Its value is 7.636%.

**Q.** And the IC50 at 48 h [5]?
**A.** The IC50 at 48 h was 35.8 ± 1.74 µg/mL (≈ 79.8 µM).

**Q.** And the viability at 48 h, 0.4 ug [5]?
**A.** The viability at 48 h, 0.4 ug was 84.7%.

**Q.** What about the viability at 48 h, 1.6 ug [5] of the same compound?
**A.** Its viability at 48 h, 1.6 ug is 69.5%.

**Q.** What about the viability at 48 h, 6.25 ug [5] of the same compound?
**A.** Its viability at 48 h, 6.25 ug is 63.2%.

**Q.** What about the viability at 48 h, 25 ug [5] of the same compound?
**A.** The viability at 48 h, 25 ug was 51.8%.

**Q.** And the viability at 48 h, 100 ug [5]?
**A.** The viability at 48 h, 100 ug was 43.6%.

**Q.** And the “Comment (cell cycle phase of growth arrest)” value ([11]; MCF7)?
**A.** The value was “cell growth arrest@ G1/S”.

**Q.** What about the “DNA content %G0-G1” value ([11]; MCF7) of the same compound?
**A.** The value was 55.83%.

**Q.** And the “DNA content %Pre-G1” value ([11]; MCF7)?
**A.** The value was 31.19%.

**Q.** And the “DNA content %S” value ([11]; MCF7)?
**A.** Its value is 39.85%.

**Q.** What about the “%G0-G1” value ([11]; MCF-7, IC50 concentration) of the same compound?
**A.** Its value is 55.83^c ^ACD %.

**Q.** What about the “%Pre-G1” value ([11]; MCF-7, IC50 concentration) of the same compound?
**A.** Its value is 31.19^ae ^AB %.

**Q.** What about the “%S” value ([11]; MCF-7, IC50 concentration) of the same compound?
**A.** The value was 39.85 ^CE %.

**Q.** And the “arrest in S phase” value [11, 17]?
**A.** Its value is 1.33 folds.

**Q.** What about the “increase of apoptotic cells in pre-G1 phase” value [11, 17] of the same compound?
**A.** Its value is 18.67 folds.

**Q.** And the IC50 [6]?
**A.** The IC50 was 79.9 ± 1.74 µM.

**Q.** Which IC50 [12] does the source give for O=c1cc(Cn2ccnc2)c2ccc(Oc3ccc(F)c(F)c3)cc2o1 [II] here?
**A.** Its IC50 is 0.047 µM.

**Q.** For COc1ccc2c(Cc3ccccc3)c(-c3ccc(Cl)cc3)c(=O)oc2c1 [IV], which IC50 [12] is on record?
**A.** The IC50 was 0.08 µM.
